Results published in US8889370B2, “Method of determining inhibitors of coagulation” (Siemens Healthcare Diagnostics Products GmbH, priority 2010, dated 2014).
Where two headings read alike, the source gives them in different places.

Biological target: T1, bovine thrombin (Bos taurus, UniProt P00735)
T1 construct: a lyophilized thrombin reagent consisting of bovine thrombin; purchased Siemens Healthcare Diagnostics (hirudin activity assay, thrombin reagent)
Assay: Determination of the thrombin binding constant (Ki) of peptide aldehyde ligands, chromogenic assay with hirudin activity assay reagents, Dixon plot
Assay type: biochemical
Method: The kinetic data of the peptide aldehyde ligands were determined in chromogenic assay formats by measuring the rate of hydrolysis of chromogenic peptide substrates which compete with the peptide aldehyde ligands for binding to the active site of the particular enzyme, at various substrate concentrations and peptide aldehyde-ligand concentrations. The binding constant (Ki) was determined by a known method (Dixon, M., 1953, Biochem J, 55, 170-171).
The thrombin binding constant was determined using the reagents of the hirudin activity assay from Siemens Healthcare Diagnostics. The hirudin activity assay comprises a lyophilized thrombin reagent consisting of bovine thrombin, a heparin inhibitor and aprotinin, a lyophilized chromogenic substrate reagent with a concentration of 4 mmol/l tos-Gly-Pro-Arg-ANBA-IPA (tosylglycyl-L-propyl-arginyl-5-amino-2-nitrobenzoyliso-propylamide) after reconstitution. The thrombin reagent was reconstituted in buffer solution (trishydroxymethylamino-methane, NaCl, pH 8.2). Dilutions of the substrate reagent were prepared with deionized water. The peptide aldehyde ligands prepared according to example 1 were dissolved in water and used as sample. The B-r-G-R—H ligand was used in a concentration range from 26.1 to 0.815 μM. The B-f-P—R—H ligand was used in a concentration range from 26.1 to 0 μM. The assays were carried out automatically in a BCS® XP coagulation analyzer (Siemens Healthcare Diagnostics, Marburg, Germany).
A reaction mix was mixed together as follows:
30 μl of sample (peptide aldehyde ligand B-r-G-R—H or B-f-P—R—H),
150 μl of thrombin reagent,
50 μl of chromogenic substrate reagent (tos-Gly-Pro-Arg-ABNA-IPA).
The reaction rate in mE/min was determined on the basis of the increase in optical density of the reaction mix at a wavelength of 405 nm. For this, the optical density of the reaction mixes was determined in time intervals of from 15 to 40 seconds for the B-f-P—R—H peptide aldehyde ligand or 5-16 seconds for the B-r-G-R—H peptide aldehyde ligand.
Reversibly and irreversibly binding ligands can be distinguished by their reaction kinetics. Plotting 1/v, where v is the reaction rate, as a function of the ligand concentration (i) at a constant concentration (S) of a cleavable substrate produces a line. When using two or more different substrate concentrations (S1, S2 . . . SN), said lines intersect at a single point. The x axis value of this point corresponds to −Ki, with Ki corresponding to the binding constant, see, for example, Klebe, G., Wirkstoffdesign, 2nd edition, Spektrum Akademischer Verlag, Heidelberg, Germany, 2009, pages 52-62 and Dixon, M., 1953, Biochem J, 55, 170-171. With an irreversible inhibition, the curves meet at a single point on the x axis, which again corresponds to −Ki.

Structure (SMILES): N=C(N)NCCC[C@@H](C=O)NC(=O)[C@@H]1CCCN1C(=O)[C@@H](Cc1ccccc1)NC(=O)CCC(=O)NCCCOCCOCCOCCCNC(=O)CCCC[C@@H]1SC[C@@H]2NC(=O)N[C@@H]21 [B-f-P-R-H, biotinyl-Ttds-D-Phe-Pro-Arg-H]
- 1/Reaction rate (CB-f-P-R-H 0.02038 μM, Csubstrate = 0.5 mM, not in the linear region, excluded from regression): 1.869 min/E
- 1/Reaction rate (CB-f-P-R-H 0.02038 μM, Csubstrate = 2 mM): 0.4138 min/E
- 1/Reaction rate (CB-f-P-R-H 0.02038 μM, Csubstrate = 4 mM): 0.3846 min/E
- 1/Reaction rate (CB-f-P-R-H 0.04076 μM, Csubstrate = 0.5 mM, not in the linear region, excluded from regression): 1.747 min/E
- 1/Reaction rate (CB-f-P-R-H 0.04076 μM, Csubstrate = 2 mM): 0.4247 min/E
- 1/Reaction rate (CB-f-P-R-H 0.04076 μM, Csubstrate = 4 mM): 0.393 min/E
- 1/Reaction rate (CB-f-P-R-H 0.08152 μM, Csubstrate = 0.5 mM): 1.565 min/E
- 1/Reaction rate (CB-f-P-R-H 0.08152 μM, Csubstrate = 2 mM): 0.4594 min/E
- 1/Reaction rate (CB-f-P-R-H 0.08152 μM, Csubstrate = 4 mM): 0.4143 min/E
- 1/Reaction rate (CB-f-P-R-H 0.16304 μM, Csubstrate = 0.5 mM): 1.711 min/E
- 1/Reaction rate (CB-f-P-R-H 0.16304 μM, Csubstrate = 2 mM): 0.521 min/E
- 1/Reaction rate (CB-f-P-R-H 0.16304 μM, Csubstrate = 4 mM): 0.4395 min/E
- 1/Reaction rate (CB-f-P-R-H 0.20380 μM, Csubstrate = 0.5 mM): 1.638 min/E
- 1/Reaction rate (CB-f-P-R-H 0.20380 μM, Csubstrate = 2 mM): 0.5061 min/E
- 1/Reaction rate (CB-f-P-R-H 0.20380 μM, Csubstrate = 4 mM): 0.4298 min/E
- 1/Reaction rate (CB-f-P-R-H 0.32609 μM, Csubstrate = 0.5 mM): 2.382 min/E
- 1/Reaction rate (CB-f-P-R-H 0.32609 μM, Csubstrate = 2 mM): 0.6613 min/E
- 1/Reaction rate (CB-f-P-R-H 0.32609 μM, Csubstrate = 4 mM): 0.5012 min/E
- 1/Reaction rate (CB-f-P-R-H 0.40761 μM, Csubstrate = 0.5 mM): 2.645 min/E
- 1/Reaction rate (CB-f-P-R-H 0.40761 μM, Csubstrate = 2 mM): 0.7008 min/E
- 1/Reaction rate (CB-f-P-R-H 0.40761 μM, Csubstrate = 4 mM): 0.5334 min/E
- 1/Reaction rate (CB-f-P-R-H 0.65217 μM, Csubstrate = 0.5 mM): 4.162 min/E
- 1/Reaction rate (CB-f-P-R-H 0.65217 μM, Csubstrate = 2 mM): 1.029 min/E
- 1/Reaction rate (CB-f-P-R-H 0.65217 μM, Csubstrate = 4 mM): 0.6737 min/E
- 1/Reaction rate (CB-f-P-R-H 0.81522 μM, Csubstrate = 0.5 mM): 4.775 min/E
- 1/Reaction rate (CB-f-P-R-H 0.81522 μM, Csubstrate = 2 mM): 1.169 min/E
- 1/Reaction rate (CB-f-P-R-H 0.81522 μM, Csubstrate = 4 mM): 0.7274 min/E
- 1/Reaction rate (CB-f-P-R-H 1.30435 μM, Csubstrate = 0.5 mM): 7.175 min/E
- 1/Reaction rate (CB-f-P-R-H 1.30435 μM, Csubstrate = 2 mM): 1.793 min/E
- 1/Reaction rate (CB-f-P-R-H 1.30435 μM, Csubstrate = 4 mM): 0.9974 min/E
- 1/Reaction rate (CB-f-P-R-H 1.63043 μM, Csubstrate = 0.5 mM): 8.491 min/E
- 1/Reaction rate (CB-f-P-R-H 1.63043 μM, Csubstrate = 2 mM): 2.164 min/E
- 1/Reaction rate (CB-f-P-R-H 1.63043 μM, Csubstrate = 4 mM): 1.183 min/E
- 1/Reaction rate (CB-f-P-R-H 2.60870 μM, Csubstrate = 0.5 mM): 13.19 min/E
- 1/Reaction rate (CB-f-P-R-H 2.60870 μM, Csubstrate = 2 mM): 3.37 min/E
- 1/Reaction rate (CB-f-P-R-H 2.60870 μM, Csubstrate = 4 mM): 1.775 min/E
- 1/Reaction rate (CB-f-P-R-H 3.26087 μM, Csubstrate = 0.5 mM): 15.77 min/E
- 1/Reaction rate (CB-f-P-R-H 3.26087 μM, Csubstrate = 2 mM): 4.026 min/E
- 1/Reaction rate (CB-f-P-R-H 3.26087 μM, Csubstrate = 4 mM): 2.13 min/E
- 1/Reaction rate (CB-f-P-R-H 5.21739 μM, Csubstrate = 0.5 mM): 24.76 min/E
- 1/Reaction rate (CB-f-P-R-H 5.21739 μM, Csubstrate = 2 mM): 6.165 min/E
- 1/Reaction rate (CB-f-P-R-H 5.21739 μM, Csubstrate = 4 mM): 3.251 min/E
- 1/Reaction rate (CB-f-P-R-H 6.52174 μM, Csubstrate = 0.5 mM): 32.28 min/E
- 1/Reaction rate (CB-f-P-R-H 6.52174 μM, Csubstrate = 2 mM): 7.856 min/E
- 1/Reaction rate (CB-f-P-R-H 6.52174 μM, Csubstrate = 4 mM): 4.089 min/E
- 1/Reaction rate (CB-f-P-R-H 9.78261 μM, Csubstrate = 0.5 mM): 43.9 min/E
- 1/Reaction rate (CB-f-P-R-H 9.78261 μM, Csubstrate = 2 mM): 11.18 min/E
- 1/Reaction rate (CB-f-P-R-H 9.78261 μM, Csubstrate = 4 mM): 5.843 min/E
- 1/Reaction rate (CB-f-P-R-H 13.04348 μM, Csubstrate = 0.5 mM): 59.12 min/E
- 1/Reaction rate (CB-f-P-R-H 13.04348 μM, Csubstrate = 2 mM): 14.43 min/E
- 1/Reaction rate (CB-f-P-R-H 13.04348 μM, Csubstrate = 4 mM): 7.611 min/E
- 1/Reaction rate (CB-f-P-R-H 16.30435 μM, Csubstrate = 0.5 mM): 74.55 min/E
- 1/Reaction rate (CB-f-P-R-H 16.30435 μM, Csubstrate = 2 mM): 18.09 min/E
- 1/Reaction rate (CB-f-P-R-H 16.30435 μM, Csubstrate = 4 mM): 9.302 min/E
- 1/Reaction rate (CB-f-P-R-H 26.08696 μM, Csubstrate = 0.5 mM): 121.7 min/E
- 1/Reaction rate (CB-f-P-R-H 26.08696 μM, Csubstrate = 2 mM): 28.41 min/E
- 1/Reaction rate (CB-f-P-R-H 26.08696 μM, Csubstrate = 4 mM): 14.59 min/E
- Intersect of regression curve 1/reaction rate vs ligand concentration (Csubstrate 0.5 mM): 0.9175 min/E
- Slope of regression curve 1/reaction rate vs ligand concentration (Csubstrate 0.5 mM): 4.5718 min/E μM
- Intersect of regression curve 1/reaction rate vs ligand concentration (Csubstrate 2 mM): 0.04059 min/E
- Slope of regression curve 1/reaction rate vs ligand concentration (Csubstrate 2 mM): 1.0812 min/E μM
- Intersect of regression curve 1/reaction rate vs ligand concentration (Csubstrate 4 mM): 0.3497 min/E
- Slope of regression curve 1/reaction rate vs ligand concentration (Csubstrate 4 mM): 0.5500 min/E μM
- Ki (average of three Ki values, read-out: KiM average thrombin binding constant): 131 nM
- Ki (intersection of regression curves Csubstrate 2 and 0.5 mM, read-out: Ki2&3 thrombin binding constant): 147 nM
- Ki (intersection of regression curves Csubstrate 4 and 0.5 mM, read-out: Ki1&3 thrombin binding constant): 141 nM
- Ki (intersection of regression curves Csubstrate 4 and 2 mM, read-out: Ki1&2 thrombin binding constant): 106 nM
- binding of the peptide aldehyde with thrombin (reversible or irreversible) (intersections of regression curves not on the x axis): reversible
